The values below come from US20240050576A1, “METHODS AND COMPOUNDS FOR THE TREATMENT OF GENETIC DISEASE” (Design Therapeutics, Inc., priority 2020, published 2024).

A value given as a limit tells only on which side of the number the result lay.

This assay deals with human FXN. Nature of the assay: FXN mRNA expression by qRT-PCR in GM15850 cells after 48 hr compound treatment. The format is cell-based. To be noted: Homo sapiens; GM15850 cells, 48 hr incubation, hFXN normalized to hGAPDH; read-out: EC50 WT (nM, 48 hr). The procedure:
Cell culture: Cells were cultured in RPMI1640 medium+15% FBS. Cells were maintained at a density between 2e5/mL and 1e6/mL. Cells were centrifuged, resuspended in fresh medium, counted and plated at 150,000 cells per well in 100 uL in a non-coated, flat bottom tissue culture plate.
Compound treatment: 10 mM stock solution of FA GeneTAC was diluted 1:10 in DMSO followed by a 1:100 dilution in growth medium. […] Compound was then diluted at a 1:3 ratio into growth medium containing 0.01% DMSO. 5-point, 3-fold dose response curve was generated. 11 μL of 10× compound was added to wells containing 100 μL cell suspension of GM15850. 11 μL growth medium containing 0.01% DMSO was added to all wells not treated with FA GeneTAC. Cells were allowed to incubate for 48 hrs prior to cell lysis using guanidine isothiocyanate solution.
RNA isolation: Total RNA was isolated and purified in 384-well column filter plates using chaotropic salt.
qRT-PCR: qRT-PCR reactions were assembled using AgPath-ID reagents (Thermo Fisher) using 6 uL mastermix and 4 μL RNA. qRT-PCR TaqMan primer probe sets against human FXN (Assay ID Hs01075496_m1) and human GAPDH (Assay ID Hs00266705_g1) were used to measure the intended targets. qRT-PCR was run on the ThermoFisher QuantStudio 6 PRO instrument using the manufacturer's recommended cycling conditions.
Data analysis: qPCR data was analyzed using Thermo Fisher Design and Analysis software. Data was exported to Excel and hFXN expression was normalized to hGAPDH expression.
A general note: In qPCR the cycle at which signal appears reflects the starting amount.
Regarding `Cc1sc2c(c1C)C(c1ccc(Cl)cc1)=N[C@@H](CC(=O)Nc1ccc(CCCOCCOCCOCCOCCOCCC(=O)NCCCN(C)CCCNC(=O)CCNC(=O)c3nc(NC(=O)CCNC(=O)c4cc(NC(=O)c5nc(NC(=O)CCNC(=O)c6cc(NC(=O)c7nccn7C)cn6C)cn5C)cn4C)cn3C)cc1)c1nnc(C)n1-2` [Compound 60], the EC50 (as a rule, the concentration that produces a half-maximal response) was 100 to 500 nM.
The figure for `Cc1sc2c(c1C)C(c1ccc(Cl)cc1)=N[C@@H](CC(=O)Nc1cccc(OCCOCCOCCOCCOCCOCCC(=O)NCCCN(C)CCCNC(=O)CCNC(=O)c3nc(NC(=O)CCNC(=O)c4cc(NC(=O)c5nc(NC(=O)CCNC(=O)c6cc(NC(=O)c7nccn7C)cn6C)cn5C)cn4C)cn3C)c1)c1nnc(C)n1-2` [Compound 62] is less than 100 nM.
The figure for `Cc1sc2c(c1C)C(c1ccc(Cl)cc1)=N[C@@H](CC(=O)Nc1ccc(CCCOCCOCCOCCOCCOCCOCCOCCOCCNC(=O)CCNC(=O)c3nc(NC(=O)CCNC(=O)c4cc(NC(=O)c5nc(NC(=O)CCNC(=O)c6cc(NC(=O)c7nccn7C)cn6C)cn5C)cn4C)cn3C)cc1)c1nnc(C)n1-2` [Compound 63] is less than 100 nM; for `Cc1sc2c(c1C)C(c1ccc(Cl)cc1)=N[C@@H](CC(=O)Nc1cccc(OCCOCCOCCOCCOCCOCCOCCOCCOCCNC(=O)CCNC(=O)c3nc(NC(=O)CCNC(=O)c4cc(NC(=O)c5nc(NC(=O)CCNC(=O)c6cc(NC(=O)c7nccn7C)cn6C)cn5C)cn4C)cn3C)c1)c1nnc(C)n1-2` [Compound 65] it is 100 to 500 nM; for `CC(=O)N1c2ccc(-c3ccc(C(=O)NCCOCCOCCOCCOCCOCCOCCOCCOCCNC(=O)c4cc(NC(=O)c5nc(NC(=O)CCNC(=O)c6cc(NC(=O)c7nc(NC(=O)CCNC(=O)COCCOCCOCCN8CCN(CC9CCNCC9)CC8)cn7C)cn6C)cn5C)cn4C)cc3)cc2[C@H](Nc2ccc(Cl)cc2)C[C@@H]1C` [Compound 73] it is greater than 500 nM.
As to `CC(=O)N1c2ccc(-c3ccc(C(=O)NCCOCCOCCOCCOCCOCCOCCOCCOCCNC(=O)c4cc(NC(=O)c5nc(NC(=O)CCNC(=O)c6cc(NC(=O)c7nc(NC(=O)CCNC(=O)[C@H](CCCNC(=N)N)NC(=O)[C@@H](N)CCCNC(=N)N)cn7C)cn6C)cn5C)cn4C)cc3)cc2[C@H](Nc2ccc(Cl)cc2)C[C@@H]1C` [Compound 75], the EC50 is greater than 500 nM.
The figure for `CC(=O)N1c2ccc(-c3ccc(C(=O)NCCOCCOCCOCCOCCOCCOCCOCCOCCNC(=O)c4nc(NC(=O)CCNC(=O)c5cc(NC(=O)c6nc(NC(=O)CCNC(=O)c7cc(NC(=O)c8nc(NC(=O)CCNC(=N)N)cn8C)cn7C)cn6C)cn5C)cn4C)cc3)cc2[C@H](Nc2ccc(Cl)cc2)C[C@@H]1C` [Compound 86, N-[5-([2-[(2-[[26-([4-[(2S,4R)-1-acetyl-4-[(4-chlorophenyl)amino]-2-methyl-3,4-dihydro-2H-quinolin-6-yl]phenyl]formamido)-3,6,9,12,15,18,21,24-octaoxahexacosan-1-yl]carbamoyl]-1-methylimidazol-4-yl)carbamoyl]ethyl]carbamoyl)-1-methylpyrrol-3-yl]-4-[3-([4-[4-(3-carbamimidamidopropanamido)-1-methylimidazole-2-amido]-1-methylpyrrol-2-yl]formamido)propanamido]-1-methylimidazole-2-carboxamide] is greater than 500 nM; for `CC(=O)N1c2ccc(-c3ccc(C(=O)NCCOCCOCCOCCOCCOCCOCCOCCOCCNC(=O)c4nc(NC(=O)CCNC(=O)c5cc(NC(=O)c6nc(NC(=O)CCNC(=O)c7cc(NC(=O)c8nc(NC(=O)CCNC(=O)COCCOCCOCCNC(=N)N)cn8C)cn7C)cn6C)cn5C)cn4C)cc3)cc2[C@H](Nc2ccc(Cl)cc2)C[C@@H]1C` [Compound 87] it is 100 to 500 nM; for `CC(=O)N1c2ccc(-c3ccc(C(=O)NCCOCCOCCOCCOCCOCCOCCOCCOCCNC(=O)c4nc(NC(=O)CCNC(=O)c5cc(NC(=O)c6nc(NC(=O)CCNC(=O)c7cc(NC(=O)c8nc(NC(=O)CCNC(=O)COCCOCCOCCN9CCN(CC%10CCNCC%10)CC9)cn8C)cn7C)cn6C)cn5C)cn4C)cc3)cc2[C@H](Nc2ccc(Cl)cc2)C[C@@H]1C` [Compound 88] it is greater than 500 nM.
